Experimental data published in article PMC11658185, “Analysis of the quadruple lsu mutant reveals molecular determinants of the role of LSU proteins in sulfur assimilation in Arabidopsis” (The Plant Journal, 2024).

Molecular target: T1, SiR (sulfite reductase; His-SiR) (Arabidopsis thaliana, UniProt Q9LZ66)
T1 construct: N-terminal His tag, expressed in E. coli Rosetta (DE3), expected size 68 kDa; truncations printed up to residue 642
T1 sequence (Q9LZ66 62-642): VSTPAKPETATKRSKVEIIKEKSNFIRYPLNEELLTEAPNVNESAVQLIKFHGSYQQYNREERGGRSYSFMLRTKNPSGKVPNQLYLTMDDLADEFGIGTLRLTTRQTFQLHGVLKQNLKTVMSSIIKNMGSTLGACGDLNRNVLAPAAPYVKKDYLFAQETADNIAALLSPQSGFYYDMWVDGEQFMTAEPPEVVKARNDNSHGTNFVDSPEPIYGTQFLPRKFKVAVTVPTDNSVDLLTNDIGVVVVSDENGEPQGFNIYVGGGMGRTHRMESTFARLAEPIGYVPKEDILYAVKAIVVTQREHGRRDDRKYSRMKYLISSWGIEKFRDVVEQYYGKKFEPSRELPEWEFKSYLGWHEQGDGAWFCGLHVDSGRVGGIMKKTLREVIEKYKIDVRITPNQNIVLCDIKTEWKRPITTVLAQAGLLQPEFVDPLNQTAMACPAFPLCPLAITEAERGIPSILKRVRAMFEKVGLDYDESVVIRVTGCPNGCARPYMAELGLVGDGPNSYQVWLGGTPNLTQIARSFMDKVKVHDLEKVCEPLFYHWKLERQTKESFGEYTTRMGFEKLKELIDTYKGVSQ
Assay: coupled assay: sulfide trapped as cysteine by O-acetylserine(thiol)lyase, ninhydrin, OD […] nm; sulfite varied
Assay type: biochemical
Conditions: pH 7.5, 25 mM HEPES, RT, 1 h; methyl viologen reduced by dithionite as electron donor; O-acetylserine 5 mM; without LSU1

O=S(O)O [sulfite]
coupled assay: sulfide trapped as cysteine by O-acetylserine(thiol)lyase, ninhyd: Specific activities of the enzyme at various concentrations of: electron donor methyl‐viologen (a), substrate sulfite (b)
